Our source for the IC50 values is patent US10450297B2, “Sulfonyl amide derivatives for the treatment of abnormal cell growth” (Pfizer, Inc., priority 2007, dated 2019).

Where a name gives a salt, the structure may show the parent alone.

Sequence of FAK kinase (catalytic construct FAK(410-689)) (Q05397 410-689): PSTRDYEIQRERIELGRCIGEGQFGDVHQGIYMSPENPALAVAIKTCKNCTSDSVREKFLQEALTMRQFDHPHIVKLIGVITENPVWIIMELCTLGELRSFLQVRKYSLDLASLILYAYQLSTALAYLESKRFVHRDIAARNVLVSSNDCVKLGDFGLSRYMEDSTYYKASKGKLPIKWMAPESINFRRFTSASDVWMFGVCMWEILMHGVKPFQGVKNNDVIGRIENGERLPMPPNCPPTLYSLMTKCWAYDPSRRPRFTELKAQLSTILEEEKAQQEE

The target of this assay is FAK kinase (catalytic construct FAK(410-689)) (Homo sapiens (Human), UniProt Q05397). Put plainly: FAKcd kinase ELISA (inhibition of poly-glu-tyr phosphorylation by FAK(410-689)). Type of assay: biochemical. To be noted: 50 μM final ATP. The protocol: A. In-Vitro Activity of FAK:
The assay protocol has three parts:
3. […] 4. […] 5. […] 6. […] 7. […] 9. […] 10. […] 12. […] 13. […] 14. Aliquot the FAKcd protein and store frozen at −80° C. II. FAK Activation 1. […] At t120 (t=120 minutes), add 10 μl of 150 mM ATP. […] Add 180 μl aliquots of the desalted material to NiNTA spin column and incubate on spin column 4. […] FAKcd Kinase ELISA 1. Coat 96-well Nunc MaxiSorp plates with poly-glu-tyr (pGT) at […]: Prepare 10 μg/ml of pGT in PBS and aliquot 100 μl/well. Incubate the plates at 37° C. overnight, aspirate the supernatant, wash the plates 3 times with Wash Buffer, and flick to dry before storing at 4° C. 2. Prepare compound stock solutions of 2.5 mM in 100% DMSO. The stocks are subsequently diluted to 60× of the final concentration in 100% DMSO, and diluted 1:5 in Kinase Phosphorylation Buffer. 3. […] Add 80 μl to each well for a final ATP concentration of 50 μM. 4. […] 5. Dilute on ice, FAKcd protein to 1:1000 in Kinase Phosphorylation Buffer. Dispense 30 μl per well. 6. Note: Linearity and the appropriate dilution must be pre-determined for each batch of protein. The enzyme concentration selected should be such that quantitation of the assay signal will be approximately 0.8-1.0 at OD450, and in the linear range of the reaction rate. 7. Prepare both a No ATP control (noise) and a No Compound Control (Signal): 8. (Noise) One blank row of wells receives 10 μl of 1:5 diluted compounds in DMSO, 80 μl of Phosphorylation buffer (minus ATP), and 30 μl FAKcd solution. 9. […] 10. Incubate reaction at room temperature for 15 minutes with gentle shaking on a plate shaker. 11. Terminate the reaction by aspirating off the reaction mixture and washing 3 times with wash buffer. 12. Dilute phospho-tyrosine HRP-conjugated (pY20HRP) antibody to 0.250 μg/ml (1:1000 of Stock) in blocking buffer. Dispense 100 μl per well, and incubate with shaking for 30 minutes at 25°. 13. Aspirate the supernatant and wash the plate 3 times with wash buffer. 14. Add 100 μl per well of room temperature TMB solution to initiate color development. Color development is terminated after approximately 15-30 sec. by the addition of 100 μl of 0.09M H2SO4 per well. 15. The signal is quantitated by measurement of absorbance at 450 nm on the BioRad ricroplate reader or a microplate reader capable of reading at OD450. 16. Inhibition of tyrosine kinase activity would result in a reduced absorbance signal. […] The values are reported as IC50s, μM concentration. FAK Inducible cell-based ELISA: Final Protocol Materials: […]
`CN(c1ncccc1CNc1nc(Nc2ccc(C(N)=O)cc2F)ncc1C(F)(F)F)S(C)(=O)=O` [Example 14, 3-fluoro-4-({4-[({2-[methyl(methylsulfonyl)amino]pyridin-3-yl}methyl)amino]-5-(trifluoromethyl)pyrimidin-2-yl}amino)benzamide formic acid salt] came in with an IC50 below 0.595 nM. For the compound `CN(c1ncccc1CNc1nc(Nc2ccc(C(=O)O)cc2)ncc1C(F)(F)F)S(C)(=O)=O` [Compound 43, 4-({4-[({2-[methyl(methylsulfonyl)amino)pyridin-3-yl}methyl)amino]-5-(trifluoromethyl)pyrimidin-2-yl}amino)benzoic acid], the 50% inhibitory concentration (IC50) was determined as 0.6 nM. That is a sub-nanomolar value. Compound `CS(=O)(=O)c1cccc(CNc2nc(Nc3ccc(S(N)(=O)=O)cc3)ncc2C(F)(F)F)c1` [Compound 18, 4-{[4-{[3-(methylsulfonyl)benzyl]amino}-5-(trifluoromethyl)pyrimidin-2-yl]amino}benzene-sulfonamide] returned an IC50 of 13.2 nM. With `CN(c1ncccc1CNc1nc(Nc2cccc(C(=O)N3CCC(F)(F)C3)c2)ncc1C(F)(F)F)S(C)(=O)=O` [Compound 177, N-[3-({(2-({3-[(3,3-difluoropyrrolidin-1-yl)carbonyl]phenyl}amino)-5-(trifluoromethyl)pyrimidin-4-yl]amino}methyl)pyridin-2-yl]-N-methylmethane-sulfonamide] the figure was 5.93 nM. In turn, `CN(c1ncccc1CNc1nc(Nc2ccc(CNS(C)(=O)=O)cc2)ncc1C(F)(F)F)S(C)(=O)=O` [Compound 30, N-methyl-N-{3-[({2-[(4-{[(methylsulfonyl)amino]methyl}phenyl)amino]-5-(trifluoromethyl)pyrimidin-4-yl}amino)methyl]pyridin-2-yl}methanesulfonamide] came in with an IC50 of 0.72 nM. In turn, `CN(c1ncccc1CNc1nc(Nc2cccc(C(=O)NCc3ccccc3)c2)ncc1C(F)(F)F)S(C)(=O)=O` [Compound 191, N-benzyl-3-({4-[({2-[methyl(methylsulfonyl)amino]pyridin-3-yl}methyl)amino]-5-(trifluoromethyl)pyrimidin-2-yl}amino)benzamide] yielded an IC50 of 5.5 nM. Against the preceding compound, the IC50 is about 7.6-fold higher.

`CN(c1ncccc1CNc1nc(Nc2ccncc2)ncc1C(F)(F)F)S(C)(=O)=O` [Compound 285, N-methyl-N-[3-({[2-(pyridin-4-ylamino)-5-(trifluoromethyl)pyrimidin-4-yl]amino}methyl)pyridin-2-yl]methanesulfonamide] returned an IC50 of 1.27 nM.

`CS(=O)(=O)c1cccc(CNc2nc(Nc3ccc(N4CCCS4(=O)=O)cc3)ncc2C(F)(F)F)c1` [Compound 29, N~2~-[4-(1,1-dioxidoisothiazolidin-2-yl)phenyl]-N-4~-[3-(methylsulfonyl)benzyl]-5-(trifluoromethyl)pyrimidine-2,4-diamine] registered a concentration for half-maximal inhibition (IC50) of 2.09 nM. Against the preceding compound, the IC50 is about 1.6-fold higher. `CN(c1ncccc1CNc1nc(Nc2ccc(CO)cc2)ncc1C(F)(F)F)S(C)(=O)=O` [Example 6, N-(3-((2-(4-(hydroxymethyl)phenylamino)-5-(trifluoromethyl)pyrimidin-4-ylamino)methyl)pyridin-2-yl)-N-methylmethanesulfonamide] yielded a half-inhibitory concentration (IC50) below 0.595 nM.

Take `CN(c1ncccc1CNc1nc(Nc2cccc(CNC(N)=O)c2)ncc1C(F)(F)F)S(C)(=O)=O` [Compound 222, N-{3-[({2-[(3-{[(aminocarbonyl)amino]-methyl}phenyl)amino]-5-(trifluoromethyl)pyrimidin-4-yl}amino)methyl]pyridin-2-yl}-N-methylrnethanesulfonamide]: half-maximal inhibition (IC50) required 0.6 nM. This lies in the sub-nanomolar range. To `CN(C)C(=O)CNC(=O)c1ccc(Nc2ncc(C(F)(F)F)c(NCc3cccnc3N(C)S(C)(=O)=O)n2)cc1` [Compound 259, N-[2-(dimethylamino)-2-oxoethyl]-4-({4-[({2-[methyl(methylsulfonyl)amino]pyridin-3-yl}methyl)amino]-5-(trifluoromethyl)pyrimidin-2-yl}amino)benzamide] belongs 1.57 nM; to `CNC(=O)c1ccc(Nc2ncc(C(F)(F)F)c(NCc3nccnc3N(C)S(C)(=O)=O)n2)cc1F` [Compound 370, 2-fluoro-N-methyl-4-({4-(({3-[methyl(methylsulfonyl)amino]pyrazin-2-yl}methyl)amino]-5-(trifluoromethyl)pyrimidin-2-yl}amino)benzamide], 0.6 nM.

In the case of `CN(c1ncccc1CNc1nc(Nc2cccc(C(=O)N3CC[C@@H](O)C3)c2)ncc1C(F)(F)F)S(C)(=O)=O` [Compound 175, N-{3-[({2-[(3-{[(3R)-3-hydroxypyrrolidin-1-yl]carbonyl}phenyl)amino]-5-(trifluoromethyl)pyrimidin-4-yl}amino)methyl]pyridin-2-yl}-N-methyl-methanesulfonamide], it took 4.08 nM to reach half-maximal inhibition (IC50).

`CN(c1ncccc1CNc1nc(Nc2ccc(N3CCOCC3)cc2)ncc1C(F)(F)F)S(C)(=O)=O` [Compound 291, N-methyl-N-{3-[({2-[(4-morpholin-4-ylphenyl)amino]-5-(trifluoromethyl)pyrimidin-4-yl}amino)methyl]pyridin-2-yl}methanesulfonamide] showed an IC50 below 0.595 nM.

`COCC(=O)N1CCC(Nc2ncc(C(F)(F)F)c(NCc3cccnc3N(C)S(C)(=O)=O)n2)CC1` [Compound 55, N-[3-({[2-{[1-(methoxyacetyl)piperidin-4-yl]amino}-5-(trifluoromethyl)pyrimidin-4-yl]amino}methyl)pyridin-2-yl]-N-methylmethane-sulfonamide] showed an IC50 of 188 nM.

`CN(c1ncccc1CNc1nc(Nc2ccc(C(=O)N3CC(F)C3)cc2)ncc1C(F)(F)F)S(C)(=O)=O` [Compound 272, N-[3-(([2-({4-[(3-fluoroazetidin-1-yl)carbonyl]phenyl}amino)-5-(trifluoromethyl)pyrimidin-4-yl]amino}methyl)pyridin-2-yl]-N-methylmethane-sulfonamide] came in with a 50% inhibitory concentration (IC50) of 2.64 nM. Turning to `CN(c1ncccc1CNc1nc(Nc2cccc(C(=O)Nc3cccc(C(F)(F)F)c3)c2)ncc1C(F)(F)F)S(C)(=O)=O` [Compound 88, 3-({4-[({2-[methyl(methylsulfonyl)amino]pyridin-3-yl}methyl)amino]-5-(trifluoromethyl)pyrimidin-2-yl}amino)-N-[3-(trifluoromethyl)phenyl]benzamide], half-maximal inhibition (IC50) required 21.5 nM. Compared with the last compound, the IC50 is about 8.1-fold higher. Regarding `CN(c1nccnc1CNc1nc(Nc2ccc(C(N)=O)c(Cl)c2)ncc1C(F)(F)F)S(C)(=O)=O` [Compound 360, 2-chloro-4-({4-[({3-[methyl(methylsulfonyl)amino]pyrazin-2-yl}methyl)amino]-5-(trifluoromethyl)pyrimidin-2-yl}amino)benzamide], the IC50 is below 0.595 nM.

Compound `Cc1ccc(CNc2nc(Nc3cccc(C(N)=O)c3)ncc2C(F)(F)F)c(N(C)S(C)(=O)=O)n1` [Compound 294, 3-({4-[({6-methyl-2-[methyl(methylsulfonyl)amino]pyridin-3-yl}methyl)amino]-5-(trifluoromethyl)pyrimidin-2-yl}amino)benzamide] returned an IC50 below 0.595 nM. Consider `CN(c1nccnc1CNc1nc(Nc2ccc(C(N)=O)c(O)c2)ncc1C(F)(F)F)S(C)(=O)=O` [Compound 395, 2-hydroxy-4-({4-(({3-[methyl(methylsulfonyl)amino]pyrazin-2-yl}methyl)amino]-5-(trifluoromethyl)pyrimidin-2-yl}amino)benzamide], for which the IC50 amounted to 0.849 nM. In turn, `CNC(=O)c1ccc(Nc2ncc(C(F)(F)F)c(NCc3cccnc3N(C)S(C)(=O)=O)n2)cc1C` [Compound 402, N,2-dimethyl-4-({4-[({2-[methyl(methylsulfonyl)amino]pyridin-3-yl}methyl)amino]-5-(trifluoromethyl)pyrimidin-2-yl}amino)benzamide] registered an IC50 below 0.595 nM. Turning to `Cc1ccc(N(C)S(C)(=O)=O)c(CNc2nc(Nc3ccc(C(N)=O)cc3)ncc2C(F)(F)F)c1` [Compound 110, 4-{[4-({5-methyl-2-[methyl(methylsulfonyl)amino]benzyl}amino)-5-(trifluoromethyl)pyrimidin-2-yl]amino}benzamide], it took 0.6 nM to reach half-maximal inhibition (IC50). As to `CC(C)NC(=O)c1ccc(Nc2ncc(C(F)(F)F)c(NCc3cccnc3N(C)S(C)(=O)=O)n2)cc1` [Compound 242, N-isopropyl-4-({4-[({2-[methyl(methylsulfonyl)amino]pyridin-3-yl}methyl)amino]-5-(trifluoromethyl)pyrimidin-2-yl}amino)benzamide], the IC50 was 1 nM.
